We go through nine compounds from article PMC2922946 (Bioorganic & medicinal chemistry, 2010).

One assay addresses T1, Hdmx–p53 complex (Homo sapiens, UniProt O15151).
T1 sequence (O15151 1-189): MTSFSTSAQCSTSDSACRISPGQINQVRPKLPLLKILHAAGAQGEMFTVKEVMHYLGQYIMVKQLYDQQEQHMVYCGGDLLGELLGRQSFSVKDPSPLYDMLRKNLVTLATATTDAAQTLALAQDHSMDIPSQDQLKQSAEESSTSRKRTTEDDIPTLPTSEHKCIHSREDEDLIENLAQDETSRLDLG
Description: Competitive ELISA, Hdmx–p53 inhibition. The class given is biochemical. Conditions: for % inhibition at 320 μM / activity against the Hdmx–p53 complex (in words): ELISA; for % inhibition at 320 μM: Hdmx (200 nM), peptide 320 μM. For orientation: ELISA stands for enzyme-linked immunosorbent assay.

For another assay, the target named is Hdm2–p53 complex (Homo sapiens, UniProt Q00987). Description: Competitive ELISA, Hdm2–p53 inhibition. The class given is biochemical. The note with it: for % Inhibition at 560 μM: ELISA, Hdm2 (1.5 μM), peptide 560 μM.

One may read the % inhibition as the relative decrease from the control value, in per cent. Read a low % inhibition as little suppression. One may read the inhibition as the change of the read-out against control, counted positive when it falls. By % Inhibition is commonly meant the drop in the measured response relative to a control, in per cent. A high value points to a strong effect.

Where a SMILES comes first, the peptide text is derived from it. The star is where a group is joined. Boc = CC(C)(C)OC(=O)*

Hdm2–p53 complex, sequence (Q00987 1-188, one chain of several): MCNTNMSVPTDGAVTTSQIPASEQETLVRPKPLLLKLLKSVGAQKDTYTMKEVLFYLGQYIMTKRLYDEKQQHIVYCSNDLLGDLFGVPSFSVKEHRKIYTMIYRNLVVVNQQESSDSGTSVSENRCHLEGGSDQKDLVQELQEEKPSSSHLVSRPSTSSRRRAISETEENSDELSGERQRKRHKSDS

Turning to `CC[C@H](C)[C@@H]1NC(=O)[C@H](C)NC(=O)[C@H](C(C)C)NC(=O)[C@H](Cc2ccc(O)cc2)NC(=O)[C@H](Cc2ccc(O)cc2)NC(=O)[C@H](Cc2ccccc2)NC1=O` [Compound 3, c-(AIFYYV)] (cyclo(AIFYYV)), the “antagonism of the Hdmx–p53 complex” value on Hdmx–p53 complex (wide range of concentrations (up to 1 mM)) is reported as “did not antagonize”. The “level of activity lower than that of the decapeptide control” value on Hdm2–p53 complex (Hdm2–p53 ELISA, versus control ETFSDLWKLL) was “approximately 13 fold”. As to `CC(C)(C)OC(=O)N[C@@H](CCCNC(=N)N)C(=O)N[C@@H](Cc1c[nH]c2ccccc12)C(=O)N[C@@H](Cc1ccccc1)C(N)=O` [Compound 5a, Boc–RWF–NH2] (Boc-Arg-Trp-Phe-NH2), on Hdmx–p53 complex, the “% inhibition at 320 μM” value is listed as “No Inhibition”.

Regarding `CC(C)C[C@@H]1NC(=O)[C@H](CC(=O)O)NC(=O)[C@H](C)NC(=O)[C@H](Cc2ccccc2)NC(=O)[C@H](Cc2c[nH]c3ccccc23)NC(=O)[C@H](CCCNC(=N)N)NC1=O` [Compound 8, c-(ADLRWF)] (cyclo(ADLRWF)), at Hdmx–p53 complex (read-out: % inhibition at 320 μM), the inhibition at 320 µM was 12 ± 1%. Take `CC(C)CNC(=O)[C@H](Cc1ccccc1)NC(=O)[C@H](Cc1c[nH]c2ccccc12)NC(=O)[C@H](CCCNC(=N)N)NC(=O)OCc1ccccc1` [Compound 12F]: at Hdm2–p53 complex (concentration not given), the “activity against Hdm2–p53 complex” value is “no activity”. In the case of Boc-DLRWF-NH2 [Compound 7a], on Hdmx–p53 complex, the “% inhibition at 320 μM” value is “No Inhibition”. As to Boc–DLRWF–N(CH2)5 [Compound 7b], at Hdmx–p53 complex, the “activity against the Hdmx–p53 complex (in words)” value is reported as “dramatic reduction of activity” and the “% inhibition at 320 μM” value was found to be 13 ± 1%. With Boc–FYYV–N(CH2)5 [Compound 2a], the “% Inhibition at 560 μM” value at Hdm2–p53 complex is listed as “No Inhibition”. The “activity toward Hdm2–p53 complex” value on Hdm2–p53 complex (at concentrations of up to 560 μM) is given as “no activity”. With Boc–IFYYV–N(CH2)5 [Compound 2b], the “% Inhibition at 560 μM” value on Hdm2–p53 complex was 16 ± 1%. For Boc–WF–N(CH2)5 [Compound 4b], on Hdmx–p53 complex, the “activity against the Hdmx–p53 complex (in words)” value is given as “measurable inhibition” and the “% inhibition at 320 μM” value amounted to 13 ± 1%.
